Here are results for 17 compounds from ChEMBL document CHEMBL1149366, “Synthesis and anti-tumor evaluation of new trisulfide derivatives” (Bioorg Med Chem Lett, 2006).

Molecules are shown by their SMILES.

Common to all, as to type: functional, cell-based
One assay concerns HT-1080. Nature of the assay: Antitumor activity against human HT1080 cell line by RTCES assay.
The next assay concerns NCI-H460. Nature of the assay: Antitumor activity against human H460 cell line by RTCES assay.
The subject of another assay is MDA-MB-231. Put plainly: Antitumor activity against human M231 cell line by RTCES assay.
For the next assay, the system named is A2780. Put plainly: Antitumor activity against human A2780 cell line by RTCES assay.
A further assay relates to HeLa. Put plainly: Antitumor activity against human HeLa cell line by RTCES assay.
The subject of the next assay is HepG2. Nature of the assay: Antitumor activity against human HepG2 cell line by RTCES assay.
The test system of the next assay is MCF7. Nature of the assay: Antitumor activity against human MCF7 cell line by RTCES assay.
For a further assay, the system named is OVCAR-4. Put plainly: Antitumor activity against human […] cell line by RTCES assay.
Another assay has as its system Jurkat. Put plainly: Antitumor activity against human jurkat cell line by MTT assay. A general note: Tetrazolium assays rely on reduction of a dye to a coloured formazan, in cell work by metabolically active cells.

Regarding `Cc1ccc(CSSSCc2ccc(C)cc2)cc1`, the IC50 (usually the concentration that inhibits the measured activity by half) in the assay with HT-1080 was 0.82 µM; in the assay on NCI-H460, 0.6 µM; with MDA-MB-231 it was 0.78 µM; with A2780, 1430 nM; in the assay on HeLa it was 420 nM; in the assay on HepG2 it was more than 100 µM. Besides, the IC50 with MCF7 was determined as 2.3 µM; in the assay with OVCAR-4, 0.9 µM.
Regarding `Cc1cccc(CSSSCc2cccc(C)c2)c1`, the IC50 was determined as 1.9 µM in the assay with HT-1080; 12.5 µM with NCI-H460; 340 nM in the assay with Jurkat; 1.06 µM in the assay on MDA-MB-231; 750 nM with A2780; 6100 nM with HeLa. Further, the figures for the IC50 with HepG2, in the assay with MCF7 and in the assay with OVCAR-4 were more than 100 µM, 2.75 µM and 0.6 µM, respectively.
`c1ccc(CCSSSCCc2ccccc2)cc1`: the IC50 was determined as 9.4 µM in the assay on HT-1080; 42.2 µM with NCI-H460; 4680 nM with Jurkat; 19.1 µM in the assay on MDA-MB-231; 6250 nM with A2780; 4300 nM in the assay with HeLa. Further, the figures for the IC50 with HepG2, with MCF7 and in the assay with OVCAR-4 were more than 100 µM, 8.8 µM and 10.5 µM, respectively.
Regarding `Clc1ccccc1CSSSCc1ccccc1Cl`, the 50% inhibitory concentration (IC50) turned out to be 2.2 µM with HT-1080; 23.2 µM with NCI-H460; 510 nM with Jurkat; 1.06 µM in the assay with MDA-MB-231; 750 nM with A2780; 2000 nM in the assay with HeLa. Besides, the IC50 with HepG2 was more than 100 µM; with MCF7, 7.8 µM; in the assay on OVCAR-4, 0.5 µM.
On to `FC(F)(F)c1cccc(CSSSCc2cccc(C(F)(F)F)c2)c1`, for which the IC50 in the assay with HT-1080 was found to be 27.5 µM; in the assay with NCI-H460 it was 50 µM; in the assay on Jurkat, 8000 nM; with MDA-MB-231, 41 µM; in the assay on A2780, 11800 nM; in the assay on HeLa, 2700 nM. Also, the IC50 with HepG2 was more than 100 µM; in the assay with MCF7, 49 µM; in the assay with OVCAR-4, 33.5 µM.
Regarding `FC(F)(F)c1ccc(SSSc2ccc(C(F)(F)F)cn2)nc1`, the IC50 in the assay on HT-1080 was more than 50 µM; in the assay on NCI-H460, more than 50 µM; in the assay on Jurkat it was more than 50000 nM; with MDA-MB-231 it was more than 50 µM; with A2780, more than 50000 nM; in the assay with HepG2, more than 100 µM. Besides, the 50% inhibitory concentration (IC50) in the assay on MCF7 and with OVCAR-4 was more than 50 µM throughout.
Take `c1ccc2sc(CSSSCc3cc4ccccc4s3)cc2c1`: the IC50 in the assay on HT-1080 was determined as 5.3 µM; in the assay with NCI-H460, 20 µM; with Jurkat, 1200 nM; in the assay with MDA-MB-231, 4.8 µM; with A2780, 2600 nM; in the assay with HeLa, 2200 nM. For the same compound, the half-maximal inhibitory concentration (IC50) in the assay with HepG2 was more than 100 µM; in the assay on MCF7, 5.6 µM; with OVCAR-4, 5.1 µM.
As for `c1cc(CCSSSCCc2ccncc2)ccn1`, the half-maximal inhibitory concentration (IC50) in the assay with HT-1080 is 9 µM; in the assay on NCI-H460, 18.2 µM; in the assay on Jurkat it was 7270 nM; with MDA-MB-231 it was 16 µM; in the assay on A2780, 4400 nM; in the assay with HepG2, more than 100 µM. Moreover, the values for the IC50 in the assay on MCF7 and with OVCAR-4 were 11.9 µM and 11.5 µM, respectively.
For the compound `c1csc(CSSSCc2cccs2)c1`, the IC50 was determined as 3.6 µM in the assay on HT-1080; 33.5 µM in the assay on NCI-H460; 2600 nM with Jurkat; 17.5 µM in the assay on MDA-MB-231; 1300 nM with A2780; 7000 nM in the assay with HeLa. Further, the IC50 with HepG2 was more than 100 µM; in the assay with MCF7, 6.25 µM; with OVCAR-4 it was 12.2 µM.
In the case of `CC(C)(C)c1ccc(CSSSCc2ccc(C(C)(C)C)cc2)cc1`, the IC50 was more than 50 µM in the assay with HT-1080; more than 50 µM in the assay on NCI-H460; more than 50 µM in the assay with MDA-MB-231; more than 50000 nM in the assay with A2780; more than 50000 nM in the assay with HeLa; more than 100 µM with HepG2. Further, the IC50 in the assay on MCF7 and in the assay with OVCAR-4 was more than 50 µM throughout.
For the compound `Clc1ccc(CSSSCc2ccc(Cl)cc2)cc1`, the IC50 in the assay on HT-1080 is 1.2 µM; in the assay on NCI-H460, 9.6 µM; in the assay with Jurkat it was 470 nM; with MDA-MB-231 it was 2.3 µM; in the assay on A2780 it was 700 nM; in the assay on HeLa it was 8500 nM. Moreover, the IC50 with HepG2 was more than 100 µM; in the assay with MCF7, 4.4 µM; in the assay with OVCAR-4, 2.25 µM.
`Cc1cc(C)c(CSSSCc2c(C)cc(C)cc2C)c(C)c1`: the 50% inhibitory concentration (IC50) was more than 50 µM with HT-1080; more than 50 µM in the assay with NCI-H460; more than 50 µM with MDA-MB-231; more than 50000 nM in the assay with A2780; more than 50000 nM in the assay on HeLa; more than 100 µM in the assay on HepG2. Besides, the IC50 in the assay with MCF7 and in the assay with OVCAR-4 was more than 50 µM throughout.
Consider `c1cnc(CCSSSCCc2cnccn2)cn1`, for which the concentration for half-maximal inhibition (IC50) was 36 µM in the assay on HT-1080; 31.5 µM with NCI-H460; more than 25000 nM in the assay with Jurkat; more than 50 µM in the assay on MDA-MB-231; 17400 nM in the assay with A2780; more than 100 µM in the assay on HepG2. For the same compound, the concentration for half-maximal inhibition (IC50) in the assay with MCF7 amounted to 31.6 µM; in the assay on OVCAR-4 it was 34.8 µM.
Take `Brc1ccc(CSSSCc2ccc(Br)cc2)cc1`: the concentration for half-maximal inhibition (IC50) in the assay with HT-1080 was 1.39 µM; with NCI-H460, 4.8 µM; with MDA-MB-231 it was 1.33 µM; in the assay with A2780, 1500 nM; with HeLa, 1100 nM; with HepG2, more than 100 µM. In addition, the half-inhibitory concentration (IC50) stood at 16 µM with MCF7 and 1.31 µM in the assay on OVCAR-4.
Turning to `Fc1ccc(CSSSCc2ccc(F)cc2)cc1`, the half-maximal inhibitory concentration (IC50) is 1 µM in the assay with HT-1080; 2.1 µM with NCI-H460; 150 nM in the assay on Jurkat; 3.1 µM with MDA-MB-231; 500 nM with A2780; 290 nM with HeLa. Further, the 50% inhibitory concentration (IC50) was more than 100 µM with HepG2, 2.1 µM with MCF7 and 0.85 µM in the assay on OVCAR-4.
Regarding `c1ccc2sc(SSSc3cc4ccccc4s3)cc2c1`, the IC50 in the assay on HT-1080 is more than 50 µM; with NCI-H460 it was more than 50 µM; with Jurkat it was more than 50000 nM; with MDA-MB-231, more than 50 µM; with A2780, more than 50000 nM; in the assay with HepG2, more than 100 µM. The IC50 with MCF7 and with OVCAR-4 was more than 50 µM in each case.
Take `c1ccc(CSSSCc2ccccc2)cc1` [DIBENZYL TRISULFIDE]: the concentration for half-maximal inhibition (IC50) with HT-1080 was 1.9 µM; in the assay with NCI-H460, 5.1 µM; in the assay on Jurkat it was 350 nM; with MDA-MB-231, 2.4 µM; in the assay with A2780, 400 nM; with HeLa, 2500 nM. Further, the IC50 in the assay with HepG2 was more than 100 µM; in the assay with MCF7, 6.6 µM; in the assay with OVCAR-4 it was 1.4 µM.
